In patent US10517926B2, “Oligopeptide having proinflammatory cytokine secretion-inhibiting activity” (Osaka University, priority 2015, dated 2019):

Key:
Type in all cases: cell-based, mouse
[1] = test system: neuron-glia mixed culture; assay: Neuronal cell death by LPS in neuron-glia mixed culture system (MAP2 staining); conditions: B group; MHP1 50 μg/ml pretreatment, LPS 10 μg/ml, 5 days; FIG. 6
Protocol: Neuronal tissue (a mixture of neurons and glial cells) was removed from a mouse fetus 21 days after fertilization (21st fetal day), and cultured in Neurobasal medium (+B-27, +5% HS) for 9 days. Then, the cells were divided into 3 groups (A to C groups), and subjected to the following treatments.
The cells were cultured for 24 hours after the medium was changed to a medium (Neurobasal A/N2 supplement) containing MHP1 (final concentration: 50 μg/ml). Then, LPS (final concentration: 10 μg/ml) was added to the medium, and the cells were further cultured for 5 days. After culture, immunostaining was performed according to a general method using an antibody (M4403, produced by Sigma-Aldrich) against MAP2, which was a neuronal cell marker, as a primary antibody (primary antibody: 1/1000 dilution, and second antibody (A 11001, produced by Invitrogen): 1/1000 dilution). The staining images were observed, and the ratio of the area of the stained region (i.e., the region occupied by the survival neurons) to the culture dish area was calculated.

[2] = test system: RAW264.7 cells; assay: Proinflammatory cytokine secretion inhibition, LPS-stimulated macrophage cells (ELISA); conditions: MHP1 30, 50 or 100 μg/ml, LPS 2 ng/ml, 24 hours
Protocol: RAW264.7 cells (mouse-derived macrophage cell line) were cultured in a DMEM medium (+4% FBS) containing MHP1 (final concentration: 30, 50, or 100 μg/ml) and LPS (final concentration: 2 ng/ml) for 24 hours by a standard method. After culture, the concentrations of IL-6 and TNFα in the medium were measured by the ELISA method. The results are shown in FIG. 3 (IL-6) and FIG. 4 (TNFα).

[3] = test system: MG6 cells; assay: Stability of RANKL peptide: activity after storage in water; conditions: 2 mg/ml in water, 4° C., 208 days
Protocol: MG6 cells (mouse-derived microglial cell line) were cultured in a DMEM medium (+4% FBS) containing MHP1 or MHP2 (final concentration: 50 or 100 μg/ml), and LPS (final concentration: 2 ng/ml) for 24 hours by a standard method. After culture, the concentrations of IL-6 and TNFα in the medium were measured by the ELISA method. In the Examples of the present application, the ELISA method was performed using a kit (Quantikine ELISA Mouse TNF-α or Quantikine ELISA Mouse IL-6, produced by R&D Systems). The results are shown in FIG. 1 (IL-6) and FIG. 2 (TNFα).
MHP1 was dissolved in water to a concentration of 2 mg/ml, and stored at 4° C. for 208 days. Thereafter, the proinflammatory cytokine secretion-inhibiting effect of this MHP1 was examined in the same manner as in Example 2, except that the final concentration of MHP1 was set to 100 μg/ml.

Sequence: LMVYVVKTSIKIPSSHNLMKGGSTKNWSGN (listed as Mus musculus) [MHP1]
- neuronal cell death by LPS [1]: suppressed
- increase in the amount of IL-6 secretion by LPS ([2]; FIG. 3): suppressed
- increase in the amount of TNFα secretion by LPS ([2]; FIG. 4): suppressed
- stability [3]: high
- proinflammatory cytokine secretion-inhibiting effect after long-term storage ([3]; tested at 100 μg/ml on MG6 cells, FIG. 18): exhibited a proinflammatory cytokine secretion-inhibiting effect
